Source: patent publication US20180200257A1, “METHODS FOR THE TREATMENT OF INFLAMMATORY DISORDERS” (Galapagos NV, priority 2015, published 2018)

System: subjects with moderately to severely active RA who have an inadequate response to methotrexate (MTX)
Assay: Study 1 (add-on to MTX) - Creatinine levels
Type: in vivo, human
Protocol: Double-blind, placebo-controlled add on study in subjects with moderately to severely active RA who have an inadequate response to methotrexate (MTX) (oral or parenteral).
595 subjects randomized to one of 6 dose regimens of Compound 1 (dosed as [Compound 1:HCl:3H2O]) (3 dose levels administered either once or twice daily) or placebo on top of each subject's stable dose of MTX.
Compound 1 (dosed as [Compound 1:HCl:3H2O]) is dosed for twelve weeks once daily (q.d.) (50 mg, 100 mg or 200 mg) or twice daily (b.i.d.) (25 mg, 50 mg or 100 mg); or placebo.
At Week 12, the subjects on placebo who have not achieved 20% improvement in swollen joint count (SJC66) and tender joint count (TJC68) are re-randomized automatically to receive Compound 1 (dosed as a [Compound 1:HCl:3H2O]) either at 100 mg q.d. or 50 mg b.i.d. doses in a blinded fashion; subjects on 50 mg q.d. who have not achieved 20% improvement in SJC66 and TJC68 will be assigned to 100 mg q.d. and subjects on 25 mg b.i.d. that have not achieved a 20% improvement in SJC66 and TJC68 will be assigned to 50 mg b.i.d. Subjects who switch treatment at week 12 are handled as if they discontinued at week 12 for the purpose of statistical analysis, whereas subjects in the other groups will maintain their randomized treatment until Week 24.
Creatinine levels determination is available at Quest Diagnostics, Clinical Trials, Quest House, 125-135 Staines Road, Hounslow, Middlesex, TW3 3JB, United Kingdom under Catalogue n# 82565. For Study 3, the data are obtained at BARC Europe, 3B,Industrie Park, Zwijnaarde, B-9052 Ghent, Belgium.
The Enzymatic method is based on the determination of sarcosine after conversion of creatinine with the aid of creatininase, creatinase, and sarcosine oxidase. The liberated hydrogen peroxide reacts with 4-aminophenazone and HTIB to form a quinone imine chromogen. The reaction is catalyzed by peroxidase. The color intensity is directly proportional to concentration of creatinine present and can be measured photometrically.

[1] = 2 × 25 mg b.i.d. (N = 86), week 0
[2] = 2 × 25 mg b.i.d. (N = 86), week 1
[3] = 2 × 25 mg b.i.d. (N = 86), week 2
[4] = 2 × 25 mg b.i.d. (N = 86), week 4
[5] = 2 × 25 mg b.i.d. (N = 86), week 8
[6] = 2 × 25 mg b.i.d. (N = 86), week 12
[7] = 2 × 50 mg b.i.d. (N = 85), week 0
[8] = 2 × 50 mg b.i.d. (N = 85), week 1
[9] = 2 × 50 mg b.i.d. (N = 85), week 2
[10] = 2 × 50 mg b.i.d. (N = 85), week 4
[11] = 2 × 50 mg b.i.d. (N = 85), week 8
[12] = 2 × 50 mg b.i.d. (N = 85), week 12
[13] = 2 × 100 mg b.i.d. (N = 84), week 0
[14] = 2 × 100 mg b.i.d. (N = 84), week 1
[15] = 2 × 100 mg b.i.d. (N = 84), week 2
[16] = 2 × 100 mg b.i.d. (N = 84), week 4
[17] = 2 × 100 mg b.i.d. (N = 84), week 8
[18] = 2 × 100 mg b.i.d. (N = 84), week 12
[19] = continued 50 mg q.d. (N = 63), week 0
[20] = continued 50 mg q.d. (N = 63), week 1
[21] = continued 50 mg q.d. (N = 63), week 2
[22] = continued 50 mg q.d. (N = 63), week 24
[23] = placebo switched to 50 mg b.i.d. at week 12 (N = 15), week 16
[24] = placebo switched to 50 mg b.i.d. at week 12 (N = 15), week 20
[25] = placebo switched to 50 mg b.i.d. at week 12 (N = 15), week 24

O=C(Nc1nc2cccc(-c3ccc(CN4CCS(=O)(=O)CC4)cc3)n2n1)C1CC1 [Compound 1, cyclopropanecarboxylic acid {5-[4-(1,1-dioxo-thiomorpholin-4-ylmethyl)-phenyl]-[1,2,4]triazolo[1,5-a]pyridin-2-yl}-amide]
Creatinine Mean CFB (50 mg q.d. (N = 82), week 0): 0 µmol/L
Creatinine Mean percentage CFB (50 mg q.d. (N = 82), week 0): 0%
Creatinine Mean CFB (50 mg q.d. (N = 82), week 1): 1 µmol/L
Creatinine Mean percentage CFB (50 mg q.d. (N = 82), week 1): 3%
Creatinine Mean CFB (50 mg q.d. (N = 82), week 2): 1 µmol/L
Creatinine Mean percentage CFB (50 mg q.d. (N = 82), week 2): 2%
Creatinine Mean CFB (50 mg q.d. (N = 82), week 4): 1 µmol/L
Creatinine Mean percentage CFB (50 mg q.d. (N = 82), week 4): 3%
Creatinine Mean CFB (50 mg q.d. (N = 82), week 8): 2 µmol/L
Creatinine Mean percentage CFB (50 mg q.d. (N = 82), week 8): 4%
Creatinine Mean CFB (50 mg q.d. (N = 82), week 12): 2 µmol/L
Creatinine Mean percentage CFB (50 mg q.d. (N = 82), week 12): 3%
Creatinine Mean CFB (100 mg q.d. (N = 85), week 0): 0 µmol/L
Creatinine Mean percentage CFB (100 mg q.d. (N = 85), week 0): 0%
Creatinine Mean CFB (100 mg q.d. (N = 85), week 1): 2 µmol/L
Creatinine Mean percentage CFB (100 mg q.d. (N = 85), week 1): 4%
Creatinine Mean CFB (100 mg q.d. (N = 85), week 2): 3 µmol/L
Creatinine Mean percentage CFB (100 mg q.d. (N = 85), week 2): 5%
Creatinine Mean CFB (100 mg q.d. (N = 85), week 4): 2 µmol/L
Creatinine Mean percentage CFB (100 mg q.d. (N = 85), week 4): 4%
Creatinine Mean CFB (100 mg q.d. (N = 85), week 8): 2 µmol/L
Creatinine Mean percentage CFB (100 mg q.d. (N = 85), week 8): 4%
Creatinine Mean CFB (100 mg q.d. (N = 85), week 12): 4 µmol/L
Creatinine Mean percentage CFB (100 mg q.d. (N = 85), week 12): 7%
Creatinine Mean CFB (200 mg q.d. (N = 86), week 0): 0 µmol/L
Creatinine Mean percentage CFB (200 mg q.d. (N = 86), week 0): 0%
Creatinine Mean CFB (200 mg q.d. (N = 86), week 1): 3 µmol/L
Creatinine Mean percentage CFB (200 mg q.d. (N = 86), week 1): 6%
Creatinine Mean CFB (200 mg q.d. (N = 86), week 2): 3 µmol/L
Creatinine Mean percentage CFB (200 mg q.d. (N = 86), week 2): 6%
Creatinine Mean CFB (200 mg q.d. (N = 86), week 4): 4 µmol/L
Creatinine Mean percentage CFB (200 mg q.d. (N = 86), week 4): 7%
Creatinine Mean CFB (200 mg q.d. (N = 86), week 8): 4 µmol/L
Creatinine Mean percentage CFB (200 mg q.d. (N = 86), week 8): 7%
Creatinine Mean CFB (200 mg q.d. (N = 86), week 12): 4 µmol/L
Creatinine Mean percentage CFB (200 mg q.d. (N = 86), week 12): 8%
Creatinine Mean CFB [1]: 0 µmol/L
Creatinine Mean percentage CFB [1]: 0%
Creatinine Mean CFB [2]: 1 µmol/L
Creatinine Mean percentage CFB [2]: 2%
Creatinine Mean CFB [3]: 1 µmol/L
Creatinine Mean percentage CFB [3]: 2%
Creatinine Mean CFB [4]: 0 µmol/L
Creatinine Mean percentage CFB [4]: 2%
Creatinine Mean CFB [5]: 2 µmol/L
Creatinine Mean percentage CFB [5]: 3%
Creatinine Mean CFB [6]: 1 µmol/L
Creatinine Mean percentage CFB [6]: 3%
Creatinine Mean CFB [7]: 0 µmol/L
Creatinine Mean percentage CFB [7]: 0%
Creatinine Mean CFB [8]: 3 µmol/L
Creatinine Mean percentage CFB [8]: 5%
Creatinine Mean CFB [9]: 4 µmol/L
Creatinine Mean percentage CFB [9]: 6%
Creatinine Mean CFB [10]: 3 µmol/L
Creatinine Mean percentage CFB [10]: 5%
Creatinine Mean CFB [11]: 3 µmol/L
Creatinine Mean percentage CFB [11]: 6%
Creatinine Mean CFB [12]: 4 µmol/L
Creatinine Mean percentage CFB [12]: 7%
Creatinine Mean CFB [13]: 0 µmol/L
Creatinine Mean percentage CFB [13]: 0%
Creatinine Mean CFB [14]: 5 µmol/L
Creatinine Mean percentage CFB [14]: 8%
Creatinine Mean CFB [15]: 4 µmol/L
Creatinine Mean percentage CFB [15]: 8%
Creatinine Mean CFB [16]: 4 µmol/L
Creatinine Mean percentage CFB [16]: 8%
Creatinine Mean CFB [17]: 7 µmol/L
Creatinine Mean percentage CFB [17]: 12%
Creatinine Mean CFB [18]: 6 µmol/L
Creatinine Mean percentage CFB [18]: 12%
Creatinine Mean CFB [19]: 0.0 µmol/L
Creatinine Mean percentage CFB [19]: 0.0%
Creatinine Mean CFB [20]: 1.4 µmol/L
Creatinine Mean percentage CFB [20]: 3.0%
Creatinine Mean CFB [21]: 0.7 µmol/L
Creatinine Mean percentage CFB [21]: 1.6%
Creatinine Mean CFB [22]: 0.6 µmol/L
Creatinine Mean percentage CFB [22]: 2.1%
Creatinine Mean CFB [23]: 4.2 µmol/L
Creatinine Mean percentage CFB [23]: 8.2%
Creatinine Mean CFB [24]: 3.6 µmol/L
Creatinine Mean percentage CFB [24]: 7.2%
Creatinine Mean CFB [25]: 4.6 µmol/L
Creatinine Mean percentage CFB [25]: 8.7%
